In PubChem BioAssay (NCI):
Several values for one entry are separate records, joined by “and”; a condition that tells them apart may be missing. Equal values may be shown once.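 In this assay, cells in 96-well plates receive the compound at five concentrations for 48 hours. Endpoints are linearly interpolated between the surrounding concentrations. At the GI50, growth is halved. TGI: total growth inhibition.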

Legend:
Assay in all cases: NCI anticancer screen, dose series, 48 h
PC-3 prostate = system: PC-3 prostate
U251 CNS = system: U251 CNS
RXF 393 renal = system: RXF 393 renal
IGROV1 ovarian = system: IGROV1 ovarian
NCI-H226 lung = system: NCI-H226 lung
NCI-H460 lung = system: NCI-H460 lung
NCI-H23 lung = system: NCI-H23 lung
HCT-15 colon = system: HCT-15 colon
SNB-75 CNS = system: SNB-75 CNS
HL-60(TB) leukemia = system: HL-60(TB) leukemia

O=C1CSC2(CCN(CCCN3c4ccccc4Sc4ccc(Cl)cc43)CC2)N1
TGI (PC-3 prostate): 16.9 µM
TGI (U251 CNS): 20.6 µM
TGI (RXF 393 renal): 16.3 µM
TGI (IGROV1 ovarian): 20.8 µM
TGI (NCI-H226 lung): 40.7 µM
TGI (NCI-H460 lung): 15.2 µM
TGI (NCI-H23 lung): 24.1 µM
TGI (HCT-15 colon): 20.8 µM
TGI (SNB-75 CNS): 20.1 µM

O=C(CSC1=NCCN1)c1ccccc1
TGI (PC-3 prostate): > 100 µM
TGI (U251 CNS): > 100 µM
TGI (RXF 393 renal): > 100 µM
TGI (IGROV1 ovarian): > 100 µM
TGI (NCI-H226 lung): > 100 µM
TGI (NCI-H460 lung): > 100 µM
TGI (NCI-H23 lung): > 100 µM
TGI (HCT-15 colon): > 100 µM
TGI (SNB-75 CNS): > 100 µM

COC1C(O)=C2C(=O)OC(C)(O)/C=C/C=C\C=C/C=C/C(c3ccccc3)NC(=O)/C=C/C=C/C=C/C=C/C2(C)C1O (configuration not stated)
GI50 (HL-60(TB) leukemia): 0.113 µM
TGI (PC-3 prostate): 0.136 µM and 0.159 µM
TGI (U251 CNS): 0.0382 µM
TGI (RXF 393 renal): 0.0425 µM
GI50 (IGROV1 ovarian): 0.0303 µM
TGI (IGROV1 ovarian): 0.15 µM and 0.168 µM
TGI (NCI-H226 lung): 0.156 µM
TGI (NCI-H460 lung): 0.0149 µM and 0.131 µM
TGI (NCI-H23 lung): 0.119 µM and 0.129 µM
TGI (HCT-15 colon): 0.0526 µM
GI50 (SNB-75 CNS): 0.0145 µM
TGI (SNB-75 CNS): 0.131 µM and 0.0786 µM

CC1(C)N=C(N)N=C(N)N1c1cccc(CSc2ccccc2)c1
TGI (HL-60(TB) leukemia): 13.3 µM
TGI (PC-3 prostate): > 100 µM
TGI (U251 CNS): > 100 µM
TGI (RXF 393 renal): 95.9 µM
TGI (IGROV1 ovarian): 25 µM
TGI (NCI-H226 lung): > 100 µM
TGI (NCI-H460 lung): > 100 µM
TGI (NCI-H23 lung): > 100 µM
TGI (HCT-15 colon): > 100 µM
TGI (SNB-75 CNS): 43.8 µM

COc1ccc2nc3c([N+](=O)[O-])ccc4c3c(c2c1)NCCN4C
TGI (HL-60(TB) leukemia): > 100 µM
TGI (PC-3 prostate): 4.54 µM
TGI (U251 CNS): 13.4 µM
TGI (RXF 393 renal): 0.878 µM
TGI (IGROV1 ovarian): 4.52 µM
TGI (NCI-H226 lung): 3.59 µM
TGI (NCI-H460 lung): 1.48 µM
TGI (NCI-H23 lung): 6.39 µM
TGI (HCT-15 colon): 2.96 µM

Cc1c2cc[n+](C)cc2c(C)c2c1[nH]c1ccccc12
TGI (HL-60(TB) leukemia): 66.9 µM and 63.5 µM
TGI (PC-3 prostate): > 100 µM
TGI (U251 CNS): 1.94 µM and 2.74 µM
TGI (RXF 393 renal): 62 µM and 36.7 µM
TGI (IGROV1 ovarian): 78.1 µM and 75.3 µM
TGI (NCI-H226 lung): 1.7 µM and 1.61 µM
TGI (NCI-H460 lung): 12.3 µM and 11.8 µM
TGI (NCI-H23 lung): 4.8 µM and 6.39 µM
GI50 (HCT-15 colon): 88 µM and 19.4 µM
TGI (HCT-15 colon): > 100 µM and 99 µM
TGI (SNB-75 CNS): 0.755 µM and 0.779 µM

CC(NCCS(=O)(=O)O)C(=O)O (configuration not stated)
TGI (HL-60(TB) leukemia): > 100 µM
TGI (U251 CNS): > 100 µM
TGI (RXF 393 renal): > 100 µM
TGI (IGROV1 ovarian): > 100 µM
TGI (NCI-H226 lung): > 100 µM
TGI (NCI-H460 lung): > 100 µM
TGI (NCI-H23 lung): > 100 µM
TGI (HCT-15 colon): > 100 µM
TGI (SNB-75 CNS): > 100 µM

CCCCCCCCCC[C@@H](O)[C@@H]1CC[C@@H]([C@@H]2CC[C@@H]([C@@H](O)CCCCCCCCCCC(O)CC3=CC(C)OC3=O)O2)O1 (some centres not stated)
TGI (HL-60(TB) leukemia): 1.85 µM
TGI (PC-3 prostate): > 10 µM
TGI (RXF 393 renal): > 10 µM
TGI (IGROV1 ovarian): > 10 µM
TGI (NCI-H226 lung): 6.84 µM
TGI (NCI-H460 lung): > 10 µM
TGI (HCT-15 colon): > 10 µM
TGI (SNB-75 CNS): > 10 µM

c1ccc(N=NNNc2ccc(-c3nc4ccccc4[nH]3)cc2)cc1
TGI (HL-60(TB) leukemia): 62.1 µM
TGI (PC-3 prostate): 82.3 µM
TGI (U251 CNS): > 100 µM
TGI (RXF 393 renal): 55.8 µM
TGI (IGROV1 ovarian): > 100 µM
TGI (NCI-H226 lung): > 100 µM
TGI (NCI-H460 lung): > 100 µM
TGI (NCI-H23 lung): > 100 µM
TGI (HCT-15 colon): > 100 µM
TGI (SNB-75 CNS): 88.7 µM

CN(C)Cc1cc(C(=O)O)cc(CN(C)C)c1O
TGI (HL-60(TB) leukemia): > 100 µM
TGI (PC-3 prostate): > 100 µM
TGI (U251 CNS): > 100 µM
TGI (RXF 393 renal): > 100 µM
TGI (IGROV1 ovarian): > 100 µM
TGI (NCI-H226 lung): > 100 µM
TGI (NCI-H460 lung): > 100 µM
TGI (NCI-H23 lung): > 100 µM
TGI (HCT-15 colon): > 100 µM
TGI (SNB-75 CNS): > 100 µM

COc1ccc(-c2cn3ccnc3c(-c3ccc4ncn(C5CCCCC5)c4c3)n2)cc1
GI50 (HL-60(TB) leukemia): 1.06 µM
TGI (HL-60(TB) leukemia): 5.05 µM
GI50 (PC-3 prostate): 0.621 µM
TGI (PC-3 prostate): > 100 µM
GI50 (U251 CNS): 2.22 µM
TGI (U251 CNS): > 100 µM
GI50 (IGROV1 ovarian): 0.921 µM
TGI (IGROV1 ovarian): > 100 µM
GI50 (NCI-H226 lung): 2.97 µM
TGI (NCI-H226 lung): > 100 µM
GI50 (NCI-H460 lung): 0.622 µM
TGI (NCI-H460 lung): > 100 µM
GI50 (NCI-H23 lung): 2.11 µM
TGI (NCI-H23 lung): > 100 µM
GI50 (HCT-15 colon): 0.722 µM
TGI (HCT-15 colon): > 100 µM
GI50 (SNB-75 CNS): 0.733 µM
TGI (SNB-75 CNS): > 100 µM

C=C[C@H]1CN2CC[C@H]1C[C@@H]2[C@@H](O)c1ccnc2ccccc12
TGI (HL-60(TB) leukemia): > 100 µM
TGI (PC-3 prostate): > 100 µM
TGI (U251 CNS): > 100 µM
TGI (RXF 393 renal): > 100 µM
TGI (IGROV1 ovarian): 75.9 µM
TGI (NCI-H226 lung): > 100 µM
TGI (NCI-H460 lung): > 100 µM
TGI (NCI-H23 lung): > 100 µM
TGI (HCT-15 colon): > 100 µM
TGI (SNB-75 CNS): > 100 µM

O=C(O)C(Cc1cccs1)C(=O)O
TGI (HL-60(TB) leukemia): > 100 µM
TGI (PC-3 prostate): > 100 µM
TGI (U251 CNS): > 100 µM
TGI (RXF 393 renal): > 100 µM
TGI (IGROV1 ovarian): > 100 µM
TGI (NCI-H226 lung): > 100 µM
TGI (NCI-H460 lung): > 100 µM
TGI (NCI-H23 lung): > 100 µM
TGI (HCT-15 colon): > 100 µM
TGI (SNB-75 CNS): > 100 µM

Nc1nc(N)c2ncn(CC(CO)CC(c3ccccc3)P(=O)(O)O)c2n1 (configuration not stated)
TGI (HL-60(TB) leukemia): > 100 µM
TGI (U251 CNS): > 100 µM
TGI (RXF 393 renal): > 100 µM
TGI (IGROV1 ovarian): > 100 µM
TGI (NCI-H226 lung): > 100 µM
TGI (NCI-H460 lung): > 100 µM
TGI (NCI-H23 lung): > 100 µM
TGI (HCT-15 colon): > 100 µM
TGI (SNB-75 CNS): > 100 µM

CN(C)c1ccc(C(c2ccc(N(C)C)cc2)c2ccc([N+](=O)[O-])cc2)cc1
TGI (HL-60(TB) leukemia): > 100 µM
TGI (PC-3 prostate): > 100 µM
TGI (U251 CNS): > 100 µM
TGI (RXF 393 renal): > 100 µM
TGI (IGROV1 ovarian): > 100 µM
TGI (NCI-H226 lung): > 100 µM
TGI (NCI-H460 lung): > 100 µM
TGI (NCI-H23 lung): > 100 µM
TGI (HCT-15 colon): > 100 µM

N#CC(c1ccccc1)c1cccc2ccccc12 (configuration not stated)
TGI (HL-60(TB) leukemia): 57.7 µM
TGI (PC-3 prostate): 71.6 µM
TGI (U251 CNS): > 100 µM
TGI (IGROV1 ovarian): > 100 µM
TGI (NCI-H226 lung): > 100 µM
TGI (NCI-H460 lung): > 100 µM
TGI (NCI-H23 lung): > 100 µM
TGI (HCT-15 colon): > 100 µM
TGI (SNB-75 CNS): > 100 µM
